Experimental data as given in patent US20250066826A1, “ARTIFICIAL SYNTHESIS METHOD FOR MALONYL-COENZYME A (COA) AND USE THEREOF” (SHANGHAI JIAO TONG UNIVERSITY, priority 2023, published 2025).
Where two headings read alike, the source gives them in different places.

Assays:
[1] = system: E. coli MG1655 (DE3), pCDF-ACC (strain N); assay type: cell-based; conditions: ACC overexpressed strain; MOPS medium with 200 mM succinic acid, 10 mM triacetic acid lactone, 300 mM NaCl or 480 mM sucrose
Description: (§1) Seed culture: Monoclones of the MG1655 (DE3), pCDF-bauA-mcrC (strain L), monoclones of the MG1655 (DE3), pCDF-duet (strain M) and monoclones of the MG1655 (DE3), pCDF-ACC (strain N) were selected respectively to be inoculated into a 15 mL test tube containing 5 mL of an MOPS medium, the medium containing spectinomycin (a final concentration of 50 μg/mL). Culture was carried out at 220 r and 37° C. until the OD550 is around 1.5 to 1.8 to be used as a seed solution.
(§2) Medium used for tolerance testing: IPTG (a final concentration of 0.1 mM) and spectinomycin (a final concentration of 50 μg/mL) were added into an MOPS medium (containing […] glucose); then, inhibitors were added, and the selected inhibitors and final concentrations thereof were formic acid (100 mM), acetic acid (50 mM), caproic acid (10 mM), lactic acid (500 mM), succinic acid (200 mM), glucose (100 μg/L), sucrose (480 mM), octanoic acid (10 mM), citric acid (200 mM), vanillic acid (3 μg/L), and triacetic acid lactone (TAL, 1.25 μg/L).
(§3) The seed solution was inoculated at a ratio of initial OD550=0.1 into a medium for tolerance test. After inoculation was completed, shaking for even mixing was carried out. 200 μL of the same was pipetted to a 96-well plate. By using a continuous kinetic assay method, OD550 was determined every 10 minutes with a microplate reader (Biotek), to determine the growth curve of the strain. The specific growth rate […] can be obtained by calculation of the exponential growth phase OD550T, cultivation time T, and initial OD550O.

[2] = system: E. coli MG1655 (DE3), pCDF-bauA-mcrC (strain L); assay type: cell-based; conditions: for biomass (OD550): NCM pathway overexpressed strain, MOPS medium with 200 mM succinic acid, 10 mM triacetic acid lactone, 300 mM NaCl or 480 mM sucrose; for increase of biomass of NCM strain compared to the ACC overexpressed strain / increase of biomass of NCM strain compared to the reference strain: same stressor concentrations as OD550 values
Description: as §1, §2, §3

[3] = system: E. coli MG1655 (DE3), pCDF-duet (strain M); experiment: Tolerance test, growth (OD550) of reference strain; assay type: cell-based; conditions: MOPS medium with 200 mM succinic acid, 10 mM triacetic acid lactone, 300 mM NaCl or 480 mM sucrose
Description: as §1, §2, §3

PDH = conditions: cited from earlier work
artificial NCM pathway = experiment: Effect of inhibitors of natural synthesis pathways on the NCM in-vitro reaction system; assay type: biochemical
Description: It can be seen that the BauA has the best effect (FIG. 4A).
Natural PDH-ACC pathways are strictly regulated by many factors, such as high levels of intracellular ATP severely reducing the activity of PDH. When ADP/ATP=1, the activity of PDH is only 10% of that when ADP/ATP=20 (Hansford R G et al., 1976). Acetyl-CoA is also an inhibitor of PDH. When acetyl-CoA reaches 2 mM, the activity of PDH decreases by 70%. Long-chain fatty acyl-CoA, such as palmitoyl-CoA, is an inhibitor of ACC. […] palmitoyl-CoA can cause an 80% decrease in ACC activity. In the above NCM in-vitro reaction system, ATP and ADP (ATP+ADP=3.75 mM, ADP/ATP was +00, 10, 1, and 0.1, respectively) (FIG. 6A), acetyl-CoA (0, 0.5, 1, and 2 mM) (FIG. 6B), and palmitoyl-CoA ([…]) (FIG. 6C) were added, respectively.

| Compound | biomass (OD550) [1] | biomass (OD550) [2] | increase of biomass of NCM strain compared to the ACC overexpressed strain [2] [%] | increase of biomass of NCM strain compared to the reference strain [2] [%] | biomass (OD550) [3] | other results |
| --- | --- | --- | --- | --- | --- | --- |
| Cc1cc(O)cc(=O)o1 [triacetic acid lactone] | 0.29 | 0.81 | 180 | 30 | 0.62 | – |
| Nc1ncnc2c1ncn2[C@@H]1O[C@H](COP(=O)(O)OP(=O)(O)OP(=O)(O)O)[C@@H](O)[C@H]1O [ATP] | – | – | – | – | – | decrease in PDH activity (PDH; ADP/ATP equal to 1): 90%; activity of PDH relative to that when ADP/ATP=20 (PDH; ADP/ATP=1): 10%; inhibitory effect on the artificial NCM pathway (artificial NCM pathway; ATP+ADP=3.75 mM, ADP/ATP +00, 10, 1 and 0.1): no inhibitory effect |
| OC[C@H]1O[C@@](CO)(O[C@H]2O[C@H](CO)[C@@H](O)[C@H](O)[C@H]2O)[C@@H](O)[C@@H]1O [sucrose] | 0.23 | 0.96 | 320 | 26 | 0.77 | – |
| [Cl-].[Na+] [NaCl] | 0.24 | 0.76 | 214 | 29 | 0.59 | – |
| O=C(O)CCC(=O)O [succinic acid] | 0.20 | 0.60 | – | 100 | 0.30 | – |
| CCCCCCCCCCCCCCCC(=O)SCCNC(=O)CCNC(=O)[C@H](O)C(C)(C)COP(=O)(O)OP(=O)(O)OC[C@H]1O[C@@H](n2cnc3c(N)ncnc32)[C@H](O)[C@@H]1OP(=O)(O)O [palmitoyl-CoA] | – | – | – | – | – | inhibitory effect on the artificial NCM pathway (artificial NCM pathway; palmitoyl-CoA 0, 0.24, 0.48, 0.96, 2.4 and 24 M): no inhibitory effect |
| CC(=O)SCCNC(=O)CCNC(=O)[C@H](O)C(C)(C)COP(=O)(O)OP(=O)(O)OC[C@H]1O[C@@H](n2cnc3c(N)ncnc32)[C@H](O)[C@@H]1OP(=O)(O)O [acetyl-CoA] | – | – | – | – | – | decrease in PDH activity (PDH; 2 mM acetyl-CoA): 70%; inhibitory effect on the artificial NCM pathway (artificial NCM pathway; acetyl-CoA 0, 0.5, 1 and 2 mM): no inhibitory effect |
